These results are taken from patent publication US20140120087A1, “TRIAZOLOPYRIDINES” (BAYER INTELLECTUAL PROPERTY GMBH, priority 2011, published 2014).

pIC50: −log10 of the molar value.

Series [1] concerns the target T1, Mps-1 kinase (Homo sapiens, UniProt P33981).
T1 sequence (P33981 1-857): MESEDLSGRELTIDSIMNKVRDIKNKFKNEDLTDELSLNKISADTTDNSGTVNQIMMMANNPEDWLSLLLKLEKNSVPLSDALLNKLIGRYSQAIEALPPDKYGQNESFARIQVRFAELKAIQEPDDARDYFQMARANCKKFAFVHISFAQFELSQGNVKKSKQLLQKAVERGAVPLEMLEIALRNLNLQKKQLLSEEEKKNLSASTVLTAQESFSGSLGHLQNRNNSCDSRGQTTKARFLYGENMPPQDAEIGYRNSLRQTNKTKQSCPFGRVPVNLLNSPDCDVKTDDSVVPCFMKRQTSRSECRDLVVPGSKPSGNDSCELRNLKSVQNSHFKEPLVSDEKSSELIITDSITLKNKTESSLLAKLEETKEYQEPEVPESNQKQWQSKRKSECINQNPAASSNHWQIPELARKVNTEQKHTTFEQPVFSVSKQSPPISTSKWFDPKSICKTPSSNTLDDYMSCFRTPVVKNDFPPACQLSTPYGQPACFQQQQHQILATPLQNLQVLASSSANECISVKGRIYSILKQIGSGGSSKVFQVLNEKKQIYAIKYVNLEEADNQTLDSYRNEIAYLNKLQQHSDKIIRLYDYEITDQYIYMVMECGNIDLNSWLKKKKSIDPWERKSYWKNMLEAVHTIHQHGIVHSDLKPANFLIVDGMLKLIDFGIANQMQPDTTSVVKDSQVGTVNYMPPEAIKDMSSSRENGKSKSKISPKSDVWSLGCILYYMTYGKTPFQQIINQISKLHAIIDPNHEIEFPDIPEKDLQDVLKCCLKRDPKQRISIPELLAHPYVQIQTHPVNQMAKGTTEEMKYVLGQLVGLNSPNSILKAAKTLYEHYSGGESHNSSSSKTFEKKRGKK
The series is described as follows: Mps-1 kinase assay with 10 μM ATP (TR-FRET). Background: In TR-FRET formats the signal depends on donor and acceptor labels being close together.

The target in series [2] is T1, Mps-1 kinase. The experiment in a line: Mps-1 kinase assay with 2 mM ATP (TR-FRET).
Series [3] is described as follows: Hydrolytic stability assay at pH 2. It counts as physicochemical. Conditions: buffer pH 2, 37° C. The method, then:
The hydrolytic stability assay investigates the stability of a compound in an aqueous buffer system. Standard solution stability assay is run in 0.05 M Phosphate buffer at pH 7.4 (pH of blood plasma) at 37° C. As compounds in the GI tract are exposed to a wide variety of pHs any relevant pH (as pH 2 to simulate the acidic condition of the GI tract in the following experiment) can be chosen. Compounds are incubated in relevant solution at 37° C. and analyzed by HPLC immediately after incubation and after 1, 2 and 24 hrs. Degradation rate (decay in %) is calculated by relating peak areas after 1, 2 and 24 hrs to the time zero injection.
Compound is available as 10 mM in DMSO (solution 1). 2.5 μL of solution 1 is dissolved in 1 mL acetonitrile leading to solution 2. Poorly soluble compounds may demand another dilution step of solution 2 (1:5 and 1:10 respectively) in Acetonitrile). Solution 2 is incubated at 37° C. in a tempered HPLC autosampler. 1 mL buffer pH 2 is transferred into an HPLC vial. 100 μL of solution 2 is added to the buffer pH 2 solution and mixed thoroughly. Immediately after mixing the combined solution is injected into the HPLC to give the time zero injection. Injections are repeated after 1, 2 and 24 hrs.
The degradation rate (decay in %) is calculated using HPLC software Millennium and Excel respectively.

Where [4] appears, read: comparison compounds specified in WO2011/063908.

As to `CCOc1cc(C(=O)N(C)CCO)ccc1Nc1nc2ccc(-c3ccc(NC(=O)Cc4ccc(F)cc4)cc3)cn2n1` [Example 01.19, 3-ethoxy-4-{[6-(4-{[(4-fluorophenyl)acetyl]amino}phenyl)[1,2,4]triazolo-[1,5-α]pyridin-2-yl]amino}-N-(2-hydroxyethyl)-N-methylbenzamide], the negative logarithm of the IC50 (pIC50) against Mps-1 kinase [1] and on Mps-1 kinase [2] was not below 9.00 each time. Besides, in series [3] (compounds of the invention), the “Hydrolysis at pH 2; Decay in % after 24 h” value (from here on “Hydrolysis … in % after 24 h”) is recorded as less than 10%.
As to `N#Cc1ccccc1Nc1nc2ccc(-c3ccc(NC(=O)Cc4ccccc4)cc3)cn2n1` [Example 6, reference compound], the “Hydrolysis … in % after 24 h” value in series [3] (setting [4]) is listed as “≧90%”.
Turning to `CCN(CC)C(=O)c1ccc(Nc2nc3ccc(-c4ccc(NC(=O)Cc5ccc(F)cc5)cc4)cn3n2)c(OCC2CC2)c1` [Example 01.24, 3-(cyclopropylmethoxy)-N,N-diethyl-4-{[6-(4-{[(4-fluorophenyl)acetyl]-amino}phenyl)[1,2,4]triazolo[1,5-α]pyridin-2-yl]amino}benzamide], the pIC50 – broadly, the IC50 on a negative log10 scale, so that one unit is a factor of ten – against Mps-1 kinase [1] is not below 9.00; against Mps-1 kinase [2] it was 8.92. Besides, the “Hydrolysis … in % after 24 h” value in series [3] (compounds of the invention) is given as less than 10%.
The like results for `COc1cc(C(=O)NC(C)(C)CO)ccc1Nc1nc2ccc(-c3ccc(NC(=O)Cc4ccc(F)cc4)cc3)cn2n1` [Example 01.13, 4-{[6-(4-{[(4-fluorophenyl)acetyl]amino}phenyl)[1,2,4]triazolo[1,5-α]-pyridin-2-yl]amino}-N-(1-hydroxy-2-methylpropan-2-yl)-3-methoxy-benzamide] were, in that order, not below 9.00, not below 9.00 and less than 10%.
With `COc1cccc(CC(=O)Nc2ccc(-c3ccc4nc(Nc5ccccc5C#N)nn4c3)cc2)c1` [Example 5, reference compound], the pIC50 at Mps-1 kinase [1] is not below 9.00. Further, the “Hydrolysis … in % after 24 h” value in series [3] (setting [4]) is “≧70%”.
The like results for `N#Cc1c(F)cccc1Nc1nc2ccc(-c3ccc(NC(=O)Cc4ccccc4)cc3)cn2n1` [Example 2, reference compound] were, in that order, not below 9.00 and “≧20%”.
`CCN(CC)C(=O)c1ccc(Nc2nc3ccc(-c4ccc(NC(=O)Cc5ccc(F)cc5)cc4)cn3n2)c(OCCOC)c1` [Example 01.26, N,N-diethyl-4-{[6-(4-{[(4-fluorophenyl)acetyl]amino}phenyl)[1,2,4]triazolo-[1,5-α]pyridin-2-yl]amino}-3-(2-methoxyethoxy)benzamide]: the figures for the pIC50 at Mps-1 kinase [1] and at Mps-1 kinase [2] were not below 9.00 and 7.68, respectively. In series [3] (compounds of the invention), the “Hydrolysis … in % after 24 h” value was less than 10%.
The like results for `CNC(=O)c1ccc(Nc2nc3ccc(-c4ccc(C(=O)NCc5ccc(F)cc5)cc4)cn3n2)c(OC)c1` [Example 02.13, 4-[(6-{4-[(4-fluorobenzyl)carbamoyl]phenyl}[1,2,4]triazolo[1,5-α]pyridin-2-yl)amino]-3-methoxy-N-methylbenzamide] were, in that order, not below 9.00, not below 9.00 and less than 10%.
As to `Cc1ccc(C#N)c(Nc2nc3ccc(-c4ccc(NC(=O)Cc5ccccc5)cc4)cn3n2)c1` [Example 10, reference compound], the negative logarithm of the IC50 (pIC50) on Mps-1 kinase [1] was 8.68. In series [3] (setting [4]), the “Hydrolysis … in % after 24 h” value is “≧70%”.
On to `CCNC(=O)c1ccc(Nc2nc3ccc(-c4ccc(NC(=O)Cc5ccc(F)cc5)cc4)cn3n2)c(OCC)c1` [Example 01.16, 3-ethoxy-N-ethyl-4-{[6-(4-{[(4-fluorophenyl)acetyl]amino}phenyl)[1,2,4]-triazolo[1,5-α]pyridin-2-yl]amino}benzamide], for which the pIC50 on Mps-1 kinase [1] and against Mps-1 kinase [2] was not below 9.00 in each case. The “Hydrolysis … in % after 24 h” value in series [3] (compounds of the invention) was less than 10%.
For the compound `CNCCN(C)C(=O)c1ccc(Nc2nc3ccc(-c4ccc(NC(=O)Cc5ccc(F)cc5)cc4)cn3n2)c(OC)c1` [Example 01.20, 4-{[6-(4-{[(4-fluorophenyl)acetyl]amino}phenyl)[1,2,4]triazolo[1,5-α]-pyridin-2-yl]amino}-3-methoxy-N-methyl-N-[2-(methylamino)ethyl]-benzamide], the pIC50 on Mps-1 kinase [1] and against Mps-1 kinase [2] was not below 9.00 each time. Also, the “Hydrolysis … in % after 24 h” value in series [3] (compounds of the invention) is reported as less than 10%.
For the compound `COc1cc(C(=O)NCCS(C)(=O)=O)ccc1Nc1nc2ccc(-c3ccc(C(=O)NCc4ccc(F)cc4)cc3)cn2n1` [Example 02.15, 4-[(6-{4-[(4-fluorobenzyl)carbamoyl]phenyl}[1,2,4]triazolo[1,5-α]pyridin-2-yl)amino]-3-methoxy-N-[2-(methylsulfonyl)ethyl]benzamide], the pIC50 against Mps-1 kinase [1] and on Mps-1 kinase [2] was not below 9.00 each time. For the same compound, the “Hydrolysis … in % after 24 h” value in series [3] (compounds of the invention) was less than 10%.
As to `COc1cc(C(=O)NC(C)(C)CO)ccc1Nc1nc2ccc(-c3ccc(C(=O)NCc4ccc(F)cc4)c(F)c3)cn2n1` [Example 03.1, 2-fluoro-N-(4-fluorobenzyl)-4-[2-({4-[(1-hydroxy-2-methylpropan-2-yl)-carbamoyl]-2-methoxyphenyl}amino)[1,2,4]triazolo[1,5-α]pyridin-6-yl]-benzamide], the pIC50 against Mps-1 kinase [1] is not below 9.00; at Mps-1 kinase [2] it was 8.16. Besides, the “Hydrolysis … in % after 24 h” value in series [3] (compounds of the invention) is recorded as less than 10%.
For the compound `N#Cc1ccccc1Nc1nc2ccc(-c3ccc(NC(=O)Cc4ccc(F)cc4)cc3)cn2n1` [Example 1, reference compound], the “Hydrolysis … in % after 24 h” value in series [3] (setting [4]) is reported as “≧90%”.
As to `CCNC(=O)c1ccc(Nc2nc3ccc(-c4ccc(C(=O)NCC5CC5)cc4)cn3n2)c(OCC)c1` [Example 06.1, 4-[(6-{4-[(cyclopropylmethyl)carbamoyl]phenyl}[1,2,4]triazolo[1,5-α]-pyridin-2-yl)amino]-3-ethoxy-N-ethylbenzamide], at Mps-1 kinase [1], the pIC50 is not below 9.00. In addition, the “Hydrolysis … in % after 24 h” value in series [3] (compounds of the invention) is listed as less than 10%.
Consider `N#Cc1ccccc1Nc1nc2ccc(-c3ccc(NC(=O)Cc4cccc(C(F)(F)F)c4)cc3)cn2n1` [Example 8, reference compound], for which the pIC50 on Mps-1 kinase [1] was 8.85. Besides, in series [3] (setting [4]), the “Hydrolysis … in % after 24 h” value is “≧70%”.
With `N#Cc1ccccc1Nc1nc2ccc(-c3ccc(NC(=O)Cc4cccc(F)c4)cc3)cn2n1` [Example 7, reference compound], on Mps-1 kinase [1], the pIC50 is 8.96. In addition, the “Hydrolysis … in % after 24 h” value in series [3] (setting [4]) is on record as “≧70%”.
The like results for `N#Cc1ccccc1Nc1nc2ccc(-c3ccc(NC(=O)Cc4ccccc4F)cc3)cn2n1` [Example 3, reference compound] were, in that order, not below 9.00 and “≧70%”.
`COc1cc(S(C)(=O)=O)ccc1Nc1nc2ccc(-c3ccc(NC(=O)Cc4ccc(F)cc4)cc3)cn2n1` [Example 01.15, 2-(4-fluorophenyl)-N-[4-(2-{[2-methoxy-4-(methylsulfonyl)phenyl]amino}-[1,2,4]triazolo[1,5-α]pyridin-6-yl)phenyl]acetamide]: in series [3] (compounds of the invention), the “Hydrolysis … in % after 24 h” value is less than 10%.
With `N#Cc1ccccc1Nc1nc2ccc(-c3ccc(NC(=O)Cc4ccc(F)c(F)c4)cc3)cn2n1` [Example 4, reference compound], at Mps-1 kinase [1], the pIC50 is not below 9.00. Also, the “Hydrolysis … in % after 24 h” value in series [3] (setting [4]) is reported as “≧70%”.
For `COc1cc(C(=O)NC(C)(C)CO)ccc1Nc1nc2ccc(-c3ccc(C(=O)NCc4ccc(F)cc4)c(Cl)c3)cn2n1` [Example 05.1, 2-chloro-N-(4-fluorobenzyl)-4-[2-({4-[(1-hydroxy-2-methylpropan-2-yl)-carbamoyl]-2-methoxyphenyl}amino)[1,2,4]triazolo[1,5-α]pyridin-6-yl]-benzamide], the pIC50 at Mps-1 kinase [1] was not below 9.00. Also, the “Hydrolysis … in % after 24 h” value in series [3] (compounds of the invention) is less than 10%.
